Test results taken from US20030211076A1, “Compositions and methods for treatment of proliferative disorders” (priority 2003, published 2003).

Columns and labels:
[1] = tested on: growth-arrested Swiss 3T3 cells; experiment: FGF2-stimulated cell cycle progression, FACS analysis; type: cell-based
Protocol: The activity of native and LO-oxidized FGF2 on cell cycle progression was evaluated by using fluorescence activated cell sorting (FACS) analysis (Darzynkiewicz et al.). Swiss 3T3 cells were growth-arrested by incubation in 0.3% fetal bovine serum (FBS)/Dulbecco's Modified Eagle's Medium (DMEM) for 3 days. As depicted in FIGS. 6A-6C, the prepared growth-arrested cells were treated for 20 h at 37° C. with or without FGF2, LO, BAPN or their combinations as indicated. After treatment, cells were washed, suspended by treatment with trypsin, washed again and fixed in 0.5% formaldehyde/0.1% Triton X-100/PBS for 15 minutes on ice followed by incubation of samples in 10 μg propidium iodide and 20 units RNAse per ml of PBS for 60 minutes in the dark for DNA staining. The fluorescence intensities of each sample of 10,000 cells in G1, S and G2/M phases were measured by flow cytometry at the FL2 setting of the fluorescence activated cell sorting (FACS) instrument (Becton-Dickinson Corp.). […] LO was presented at 10 nM, FGF2 at 5 ng ml^−1 and BAPN at 100 μM. Data represent the means (+sd) of three separate experiments each assessed with duplicate dishes.

[2] = tested on: porcine pulmonary arterial VEC; experiment: Growth of VEGF165-stimulated VEC (cell counting); type: cell-based
Protocol: The effects of LO oxidized VEGF165 on cell proliferation was also assessed. VEGF165 is a potent mitogen for vascular endothelial cells (VEC). Porcine pulmonary arterial VEC (2×10^4) were plated and incubated overnight in 35 mm-dishes containing 2 ml 15% FBS/M199 medium, and then refed with 5% FBS/M199 with different treatment regimens as shown in A, B and C of FIG. 18. FIG. 18A represents a dose response of VEGF165-stimulated cell growth. Media were supplemented with VEGF165 at the indicated doses and cells were incubated for additional 3 days. Cultures were refed once during the incubation period with fresh media supplemented with VEGF165 at indicated doses. Cells were harvested by trypsinization and counted with a hemacytometer. FIG. 18B represents the LO inhibition of VEGF165-stimulated cell growth. FIG. 18C represents the effects of inactivation of LO by BAPN on VEGF165-stimulated cell growth. […] Data represent the means (±sd) of three separate experiments each assessed with triplicate dishes.

VEC on Matrigel [3] = experiment: Time course of angiogenic response of VEC on Matrigel without Tat stimulation; type: cell-based; settings: 6, 24 and 48 h
Protocol: Time course studies on inhibition by LO of angiogenic response of VEC on Matrigel without Tat stimulation was also investigated. Cells (3×10^5) were plated on Matrigel-coated dishes. After 1 h incubation, various reagents were added to each culture. […] At each time point, a, control; b,10 nM LO; c,10 nM LO that was preincubated with 100 μM BAPN for 15 min at 37°; d, 100 μM BAPN, alone.

[4] = tested on: intracellular FGF2 in NIH 3T3 6-1 cells; experiment: Intracellular FGF2 crosslinking by LO, Western blotting with monoclonal anti-FGF2; type: cell-based, mouse
Protocol: The possibility that exposure of cells to LO alters the physical state of intracellular FGF2 was assessed by Western blotting with monoclonal anti-FGF2 of cell lysates. Subconfluent NIH 3T3 and NIH 3T3 6-1 cells were incubated for 20 h in 0.3% FBS/DMEM with or without additives as indicated below. Cells were suspended by trypsin treatment and lysed. Aliquots of lysates containing 50 μg of cell protein were analyzed by Western blotting of SDS-PAGE electrophoretograms probing with monoclonal anti-FGF2 (FIGS. 11A and 11B). Total protein was visualized by Coomassie blue staining of SDS-PAGE electrophoretograms (FIG. 11C). FIG. 11A represents FGF2 expression in NIH 3T3 (lane 1) and NIH 3T3 6-1 cells (lane 2). FIG. 11B represents forms of intracellular FGF2 in NIH 3T3 6-1 cells incubated in the absence (lane 1) or presence of 25 nM LO (lane 2) or presence of 25 nM LO which had been preincubated with 100 μM BAPN for 15 min at 37° C. (lane 3). FIG. 11C represents the total protein profiles in control and LO-treated cells with treatments in each lane corresponding to those in FIG. 11B.

[5] = tested on: FGF2 nuclear localization in Swiss 3T3 cells; experiment: FGF2 nuclear localization, immunochemical staining; type: cell-based
Protocol: After endocytosis, a fraction of exogenous FGF2 can enter the nucleus of a variety of cell types in a cell cycle-dependent manner (Mason; Rifkin et al.; Prats et al.; Stachowiak et al., 1996; Arese et al.; Baldin et al.). Thus, the possibility that oxidation of FGF2 by LO affects the nuclear localization of this growth factor was tested by using immunochemistry. In FIGS. […]

VEC on Matrigel [6] = experiment: Angiogenic response of Tat-stimulated VEC on Matrigel; type: cell-based
Protocol: VEC grown on Matrigel, a solid gel of basement membrane proteins, rapidly align and form capillary-like structures providing a convenient in vitro model for angiogenesis studies (Albini et al., 1995; Grant et al.). Tat has been reported to enhance this in vitro morphogenesis of VEC consistent with its angiogenic property (Albini et al., 1995).
Cells (3×10^5) were plated on Matrigel-coated dishes. After 1 h incubation, various reagents were added to each culture. […] The following represents FIG. 15 phase-contrast microscopy: A, control; B, 10 ng ml^−1 Tat; C, 10 ng ml^−1 Tat+10 nM LO; D, 10 ng ml^−1 Tat+10 nM LO that was preincubated with 100 μM BAPN for 15 min at 370; E, 100 μM BAPN, alone, and F, 10 nM LO, alone.

[7] = tested on: growth-arrested Swiss 3T3 cells; experiment: PDGF-AB-stimulated cell cycle progression, FACS analysis; type: cell-based
Protocol: Growth-arrested Swiss 3T3 cells were incubated for 20 h at 37° C. with or without PDGF-AB, LO, BAPN or their combinations as indicated. After incubation, FACS analysis was carried out to characterize the cell cycle progression under different conditions as described in FIG. 6. FIG. 20A represents a dose response of PDGF-AB in cell cycle progression. FIG. 20B represents the LO inhibition of PDGF-AB-stimulated cell cycle progression (the control represents cells treated with 15 ng ml^−1 PDGF-AB in the absence of added LO). FIG. 20C represents the effects of inactivation of LO by BAPN on PDGF-AB-stimulated the cell cycle progression. LO: 15 nM, PDGF-AB: 15 ng ml^−1, BAPN: 100 AM. Data represent the means (±sd) of three separate experiments each assessed with triplicate dishes.

N#CCCN [BAPN, β-Aminopropionitrile, reference compound]
response relative to that observed with FGF2 alone ([1]; FGF2 5 ng/ml treated with 10 nM LO and 100 μM BAPN): 82±6%
effect on LO inhibition of VEGF165-stimulated VEC proliferation ([2]; 100 μM BAPN): effectively blocked
organization of VEC to form capillary-like structure (VEC on Matrigel [3]; 100 μM BAPN alone): did not have significant effects
effect on LO-induced FGF2 oligomer formation ([4]; 25 nM LO preincubated with 100 μM BAPN for 15 min at 37° C.): prevented
effect on LO inhibition of nuclear translocation of FGF2 ([5]; 100 μM BAPN with LO and FGF2): prevented
FGF2 transport to the nucleolus ([5]; BAPN in the absence of added LO): increased FGF2 transport to the nucleolus
effect on LO-mediated inhibition of the angiogenic response (VEC on Matrigel [6]; 10 nM LO preincubated with 100 μM BAPN for 15 min): not prevented
cell cycle progression relative to the level stimulated with PDGF-AB alone ([7]; 100 μM BAPN with LO 15 nM and 0.56 nM PDGF): 100.4%

lysyl oxidase [LO]
maximal decrease of FGF2 stimulation of cell cycle progression ([1]; 10 nM (0.32 μg/ml) LO, 0.28 nM FGF2): 80%
VEGF165-dependent cell growth ([2]; VEGF165 15 ng/ml): inhibited VEGF165-dependent cell growth with increased doses
organization of VEC to form capillary-like structure (VEC on Matrigel [3]; 10 nM LO preincubated with 100 μM BAPN (BAPN-inactivated)): strong inhibitory effects
organization of VEC to form capillary-like structure (VEC on Matrigel [3]; 10 nM active LO): strong inhibitory effects
forms of intracellular FGF2 ([4]; 25 nM LO, 20 h): induced the formation of crosslinked dimers and oligomers of FGF2 within the cells
levels of nuclear FGF2 ([5]; LO in the absence of exogenous FGF2 or BAPN): reduced levels of nuclear FGF2
intranuclear FGF2 ([5]; simultaneously incubated with FGF2 and 10 nM LO): did not exhibit enhanced levels of intranuclear FGF2
Tat-stimulated morphogenesis of VEC (VEC on Matrigel [6]; 10 ng/ml Tat + 10 nM LO): effectively blocked
decrease of PDGF-AB-induced cell cycle progression ([7]; 15 nM (0.48 μg/ml) LO, 0.56 nM PDGF-AB): 73%
